Assays:
[1] = molecular target: T1, 3',5'-cyclic-AMP phosphodiesterase 4A (Homo sapiens, UniProt P27815); experiment: Evaluated for its ability to inhibit PDE4A.
[2] = molecular target: 3',5'-cyclic-AMP phosphodiesterase 4D (Homo sapiens, UniProt Q08499); experiment: Evaluated for its ability to inhibit PDE4D.
[3] = molecular target: T2, 3',5'-cyclic-AMP phosphodiesterase 4B (Rattus norvegicus, UniProt P14646); experiment: Evaluated for its ability to inhibit PDE4B.
T2 sequence (P14646 whole entry): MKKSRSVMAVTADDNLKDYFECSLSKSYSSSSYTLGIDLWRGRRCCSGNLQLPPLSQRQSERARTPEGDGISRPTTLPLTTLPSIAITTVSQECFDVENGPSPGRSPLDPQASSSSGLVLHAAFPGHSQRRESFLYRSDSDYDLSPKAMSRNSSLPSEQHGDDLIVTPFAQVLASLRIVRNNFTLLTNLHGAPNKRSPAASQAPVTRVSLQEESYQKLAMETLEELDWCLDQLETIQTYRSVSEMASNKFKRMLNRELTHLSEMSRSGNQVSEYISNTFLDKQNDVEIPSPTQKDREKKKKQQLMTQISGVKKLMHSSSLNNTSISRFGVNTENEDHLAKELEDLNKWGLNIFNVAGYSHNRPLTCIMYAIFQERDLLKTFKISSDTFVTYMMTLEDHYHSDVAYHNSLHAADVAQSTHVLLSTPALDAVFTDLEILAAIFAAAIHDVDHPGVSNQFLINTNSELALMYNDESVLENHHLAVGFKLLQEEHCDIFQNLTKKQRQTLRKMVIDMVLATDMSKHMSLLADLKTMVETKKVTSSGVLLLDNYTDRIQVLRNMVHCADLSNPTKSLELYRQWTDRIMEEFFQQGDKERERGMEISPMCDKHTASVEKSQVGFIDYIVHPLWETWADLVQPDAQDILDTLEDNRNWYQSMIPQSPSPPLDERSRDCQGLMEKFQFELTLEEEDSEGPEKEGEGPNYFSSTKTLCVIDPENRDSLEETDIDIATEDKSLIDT

[4] = molecular target: T3, Phosphodiesterase 4 (Rattus norvegicus, UniProt P14270+P14646+P14644+P54748); experiment: Evaluated for the inhibition of [3H]rolipram binding to membrane-bound PDE4.
[5] = molecular target: Phosphodiesterase 3 (Homo sapiens, UniProt Q14432+Q13370); experiment: Evaluated for its ability to inhibit PDE3.; format: protein assay
[6] = molecular target: T1, 3',5'-cyclic-AMP phosphodiesterase 4A; experiment: Inhibition of PDE4A
[7] = molecular target: T3, Phosphodiesterase 4; experiment: Inhibition of [3H]-rolipram binding to membrane-bound PDE4

T1 sequence (P27815 whole entry): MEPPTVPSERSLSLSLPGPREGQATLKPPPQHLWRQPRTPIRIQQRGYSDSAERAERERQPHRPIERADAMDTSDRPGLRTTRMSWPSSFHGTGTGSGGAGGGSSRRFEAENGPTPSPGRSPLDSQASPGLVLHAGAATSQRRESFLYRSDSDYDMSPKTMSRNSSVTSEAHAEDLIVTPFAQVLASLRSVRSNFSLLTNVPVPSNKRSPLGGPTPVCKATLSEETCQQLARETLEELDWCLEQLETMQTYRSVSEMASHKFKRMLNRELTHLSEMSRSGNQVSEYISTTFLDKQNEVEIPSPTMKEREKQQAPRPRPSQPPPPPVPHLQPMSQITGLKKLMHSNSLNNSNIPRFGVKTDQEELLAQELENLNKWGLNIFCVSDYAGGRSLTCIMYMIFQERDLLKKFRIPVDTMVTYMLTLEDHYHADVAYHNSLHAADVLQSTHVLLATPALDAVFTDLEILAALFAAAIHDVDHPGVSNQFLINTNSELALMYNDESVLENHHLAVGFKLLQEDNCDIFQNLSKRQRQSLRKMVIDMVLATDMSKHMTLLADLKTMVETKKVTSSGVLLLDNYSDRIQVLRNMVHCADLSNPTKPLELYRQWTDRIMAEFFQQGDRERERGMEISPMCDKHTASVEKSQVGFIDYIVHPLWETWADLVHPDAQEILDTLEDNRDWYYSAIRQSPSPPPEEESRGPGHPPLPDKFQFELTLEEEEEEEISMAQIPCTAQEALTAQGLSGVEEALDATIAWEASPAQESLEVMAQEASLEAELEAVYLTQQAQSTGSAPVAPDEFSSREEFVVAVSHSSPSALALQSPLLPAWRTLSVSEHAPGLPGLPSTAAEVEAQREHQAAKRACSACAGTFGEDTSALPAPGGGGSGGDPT
Chain of 3',5'-cyclic-AMP phosphodiesterase 4D (Q08499 whole entry): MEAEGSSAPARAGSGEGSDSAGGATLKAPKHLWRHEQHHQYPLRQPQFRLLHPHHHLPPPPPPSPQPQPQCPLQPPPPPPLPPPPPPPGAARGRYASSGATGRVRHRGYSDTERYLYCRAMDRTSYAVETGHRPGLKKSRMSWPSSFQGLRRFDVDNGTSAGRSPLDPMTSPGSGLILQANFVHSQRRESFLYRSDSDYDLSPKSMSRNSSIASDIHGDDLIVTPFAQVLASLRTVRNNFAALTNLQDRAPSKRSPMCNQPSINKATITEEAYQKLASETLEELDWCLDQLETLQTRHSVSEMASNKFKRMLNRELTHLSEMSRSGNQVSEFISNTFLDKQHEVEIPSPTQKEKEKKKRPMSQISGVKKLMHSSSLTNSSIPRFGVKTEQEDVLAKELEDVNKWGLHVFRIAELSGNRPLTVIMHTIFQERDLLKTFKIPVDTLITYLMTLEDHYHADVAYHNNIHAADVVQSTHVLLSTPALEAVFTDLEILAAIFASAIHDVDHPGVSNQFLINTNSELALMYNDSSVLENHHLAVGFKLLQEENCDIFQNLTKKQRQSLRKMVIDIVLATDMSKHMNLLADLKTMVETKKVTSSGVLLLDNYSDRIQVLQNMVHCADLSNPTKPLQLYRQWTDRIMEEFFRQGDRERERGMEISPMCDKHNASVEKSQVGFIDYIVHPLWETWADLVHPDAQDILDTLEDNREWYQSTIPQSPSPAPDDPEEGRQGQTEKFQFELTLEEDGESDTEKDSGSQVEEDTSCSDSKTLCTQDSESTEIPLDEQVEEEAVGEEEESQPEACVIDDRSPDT

SMILES: CCc1nc(-c2cc(OCC3CC3)cc(OCC3CC3)c2)c2cc(OCCO)c(OCCO)cc2n1
- IC50 [1]: > 100000 nM
- IC50 [2]: > 100000 nM
- IC50 [3]: > 100000 nM

SMILES: COc1cc2c(-c3cc(OCC4CC4)cc(OCC4CC4)c3)nc(OCCCO)nc2cc1OCCO
- IC50 [4]: 0.145 µM
- IC50 [1]: 250 nM
- IC50 [2]: 130 nM
- IC50 [5]: 0.31 µM
- IC50 [3]: 200 nM

SMILES: CCc1nc(-c2cc(OCC3CC3)cc(OCC3CC3)c2)c2cc(OC)c(O)cc2n1
- IC50 [1]: 3300 nM
- IC50 [2]: 650 nM
- IC50 [3]: 2400 nM

SMILES: COc1cc2c(-c3cc(OCC4CC4)cc(OCC4CC4)c3)nc(OCCO)nc2cc1OCCO
- IC50 [1]: 70 nM
- IC50 [2]: 90 nM
- IC50 [5]: 0.43 µM
- IC50 [3]: 80 nM

SMILES: COc1nc(-c2cc(OCC3CC3)cc(OCC3CC3)c2)c2cc(OC)c(OCCO)cc2n1
- IC50 [4]: 0.21 µM
- IC50 [1]: 130 nM
- IC50 [2]: 140 nM
- IC50 [5]: 0.39 µM
- IC50 [3]: 110 nM

SMILES: COc1cc2nc(C)nc(-c3cc(O)cc(O)c3)c2cc1OC
- IC50 [6]: 23.5 µM
- IC50 [2]: 2000 nM
- IC50 [3]: 14000 nM

SMILES: CCSc1nc(-c2cc(OCC3CC3)cc(OCC3CC3)c2)c2cc(OC)c(OCCO)cc2n1
- IC50 [1]: 540 nM
- IC50 [2]: 700 nM
- IC50 [3]: 440 nM

SMILES: COc1cc2nc(C)nc(-c3cc(OCC4CC4)cc(OCC4CC4)c3)c2cc1OC
- IC50 [1]: 900 nM
- IC50 [2]: 800 nM
- IC50 [3]: 650 nM

SMILES: COc1cc2c(-c3cc(OCC4CC4)cc(OCC4CC4)c3)nc(NCCCO)nc2cc1OCCO
- IC50 [4]: 0.2 µM
- IC50 [1]: 500 nM
- IC50 [2]: 230 nM
- IC50 [5]: 0.43 µM
- IC50 [3]: 340 nM

SMILES: CCOC(=O)COc1cc2nc(C)nc(-c3cc(OCC4CC4)cc(OCC4CC4)c3)c2cc1OC
- IC50 [1]: > 10000 nM
- IC50 [2]: > 100000 nM
- IC50 [5]: 0.7 µM
- IC50 [3]: 61000 nM

SMILES: CCc1nc(-c2cc(OCC3CC3)cc(OCC3CC3)c2)c2ccc(OCCO)cc2n1
- IC50 [1]: 630 nM
- IC50 [2]: 850 nM
- IC50 [3]: 660 nM

SMILES: CCCCc1nc(-c2cc(OCC3CC3)cc(OCC3CC3)c2)c2cc(OC)c(OCCO)cc2n1
- IC50 [7]: 0.05 µM
- IC50 [1]: 1300 nM
- IC50 [2]: 300 nM
- IC50 [5]: 0.72 µM
- IC50 [3]: 300 nM

SMILES: COc1cc2c(-c3cc(OCC4CC4)cc(OCC4CC4)c3)nc(-c3cc(OCC4CC4)cc(OCC4CC4)c3)nc2cc1OCCO
- IC50 [1]: 14000 nM
- IC50 [2]: 8500 nM
- IC50 [5]: 7.8 µM
- IC50 [3]: 22000 nM

SMILES: COc1cc2c(-c3cc(OCC4CC4)cc(OCC4CC4)c3)nc(-c3cccs3)nc2cc1OCCO
- IC50 [1]: 5400 nM
- IC50 [2]: 3000 nM
- IC50 [3]: 1300 nM

SMILES: CCc1nc(-c2cc(OCC3CC3)cc(OCC3CC3)c2)c2cc(OC)c(OCc3ccccc3)cc2n1
- IC50 [1]: > 100000 nM
- IC50 [2]: > 100000 nM
- IC50 [3]: > 100000 nM

SMILES: COc1cc2c(-c3cc(OCC4CC4)cc(OCC4CC4)c3)nc(N3CCOCC3)nc2cc1OCCO
- IC50 [1]: 3300 nM
- IC50 [2]: 1200 nM
- IC50 [3]: 2500 nM

SMILES: COc1cc2nc(C)nc(-c3cc(OC(C)C)cc(OC(C)C)c3)c2cc1OC
- IC50 [1]: 2300 nM
- IC50 [2]: 1200 nM
- IC50 [3]: 1300 nM

SMILES: CCc1nc(-c2cc(OCC3CC3)cc(OCC3CC3)c2)c2cc(OC)c(OCCO)cc2n1
- IC50 [4]: 0.015 µM
- IC50 [1]: 30 nM
- IC50 [2]: 22 nM
- IC50 [5]: 0.016 µM
- IC50 [3]: 25 nM

SMILES: CCOc1nc(-c2cc(OCC3CC3)cc(OCC3CC3)c2)c2cc(OC)c(OCCO)cc2n1
- IC50 [4]: 0.043 µM
- IC50 [1]: 85 nM
- IC50 [2]: 60 nM
- IC50 [5]: 0.34 µM
- IC50 [3]: 70 nM

SMILES: CCc1nc(-c2cc(OCC3CC3)cc(OCC3CC3)c2)c2cc(OC)c(OCC3CC3)cc2n1
- IC50 [1]: 2900 nM
- IC50 [2]: 540 nM
- IC50 [3]: 600 nM
